Measured values from PMC6410202, “Dual Action of the PN159/KLAL/MAP Peptide: Increase of Drug Penetration across Caco-2 Intestinal Barrier Model by Modulation of Tight Junctions and Plasma Membrane Permeability” (Pharmaceutics, 2019).

Legend:
[1] = system: Caco-2 cells; assay: Transmission electron microscopy of tight junctions; assay type: cell-based, human; settings: 30 min
Method: Cells grown on culture inserts were treated with 10 μM PN159 peptide for 30 min and fixed immediately after treatment or after a 1-day recovery. Cells were briefly washed with phosphate-buffered saline (PBS) and fixed with 3% paraformaldehyde containing 0.5% glutaraldehyde in cacodylate buffer (pH 7.4) for 30 min at 4 °C. After washing with the buffer several times, cells were postfixed in 1% OsO4 for 20 min. Following a rinse with distilled water, the cells were block stained with 1% uranyl acetate in 50% ethanol for 20 min, dehydrated in graded ethanol and after the last step of dehydration inserts were placed in the 1:1 mixture of ethanol and Taab 812 (Taab; Aldermaston, Berks, UK) for 10 min at 30°C. Finally, the membranes of the culture inserts with the cells were removed from their support and embedded in Taab 812. Polymerization was performed overnight at 60°C. Ultrathin sections were cut perpendicularly for the membrane using a Leica EM UC6 ultramicrotome (Nussloch, Germany) and picked up on formvar-coated single-slot copper grids. […] Altogether, 105 non-overlapping images from the 3 groups at the same magnification were analyzed for the presence or absence of tight junctions (control group n = 28; PN159 group n = 42; recovery group n = 35).

[2] = system: Caco-2 cells; assay: Cellular uptake of Bodipy FL labeled PN159, confocal microscopy; assay type: cell-based, human; settings: Bodipy FL labeled PN159, 10 µM, 5 min, claudin-4 immunostaining
Method: The Caco-2 cells were grown on glass bottomed petri dishes coated with collagen to visualize the cellular uptake of the Bodipy FL maleimide labeled (BODIPY FL N-(2-aminoethyl) maleimide, Thermo Fischer, Waltham, MA, USA) PN159 peptide. The cells were treated with peptide at concentrations of 1, 3 and 10 µM for 5 min. To stain the cell nuclei the H33342dye (1 μg/mL) was used before peptide treatment for 10 min. After peptide incubation the living cells were washed three times with Ringer–Hepes buffer supplemented with 1%fetal bovine serum (FBS) and examined immediately with a Visitron spinning disk confocal system.
In the case of the co-localization analysis the labeled PN159 peptide was used in 10 µM for 5 min. Then the cellular uptake cells were fixed and immunohistochemistry was performed for claudin-4. The samples were mounted and visualized by a Leica TCS SP5 confocal laser-scanning microscope.

[3] = system: Caco-2 cells; assay: Immunostaining of junctional proteins and F-actin; assay type: cell-based, human; settings: 1 h
Method: Morphological changes in interepithelial junctions after treatment with different concentrations of CPPs (100 μM) and PN159 peptide (1, 3, 10, 30 and 100 μM) were followed by immunostaining for claudin-1 integral membrane tight junction protein, β-catenin and zonula occludens protein-1 (ZO-1) cytoplasmic linker proteins. F-actin was stained by fluorescently labeled phalloidin. Treatments lasted for 1 h. After peptide treatment cell layers were washed with PBS and fixed with a 1:1 mixture of ice cold acetone and methanol for 2 min. Cells were blocked with 3% bovine serum albumin in PBS and incubated with primary antibodies mouse anti-claudin-1 and -4, rabbit anti-ZO-1 and rabbit anti-β-catenin (Life Technologies, Carlsbad, CA, USA) overnight. Fluorescent Atto 647N-phalloidin (ATTO-TEC GmbH, Germany) lasted for 1 h. Incubation with Alexa Fluor-488-labeled anti-mouse and anti-rabbit secondary antibodies (Life Technologies, Invitrogen, USA) lasted for 1 h. Bis-benzimide dye (Hoechst 33342) was used to stain cell nuclei. After mounting (Fluoromount-G; Southern Biotech, Birmingham, AL, USA) the samples staining was visualized by a Leica TCS SP5 confocal laser scanning microscope (Leica Microsystems GmbH, Wetzlar, Germany) and Visitron spinning disk confocal system (Visitron Systems GmbH, Puchheim, Germany).

[4] = system: Caco-2 cell layers; assay: Penetration of marker and drug molecules across Caco-2 cell layers (Papp A-B); settings: PN159 10 and 30 μM, 1-h treatment
Method: In the permeability experiments inserts with Caco-2 cell layers grown for 3 weeks were transferred to 12-well plates containing 1.5 mL Ringer–Hepes buffer in the lower (basal or acceptor) compartments. In the upper or apical compartments culture medium was replaced by 0.5 mL buffer containing peptide solutions: PN159 peptide at 1, 3, 10 and 30 μM concentrations and CPPs at 100 μM concentration. […] The incubation with permeability markers in the presence of PN159 peptide lasted for 30 min. In case of CPPs the incubation time with fluorescein was 1-h. Samples were collected from both compartments and the concentrations of the marker molecules were determined by a fluorescence multi-well plate reader (Fluostar Optima; excitation wavelength: 485 nm, emission wavelength: 535 nm in the case of fluorescein and excitation wavelength: 584 nm, emission wavelength: 680 nm in the case of Evans-blue labeled albumin). Fluorescein isothiocyanate (FITC)-labelled dextran marker molecules (Table 1) were used at 1 mM concentrations, and fluorescence intensities of collected samples were measured using a Fluorolog FL3-22 (Horiba Jobin Yvon, Paris, France) spectrofluorometer using 492 nm excitation wavelength, 515 nm emission wavelength, and 0.5 s integration time. Drugs were used at 10 μM concentrations and samples were measured by HPLC as described below. The apparent permeability coefficients (Papp) were calculated as described previously. Briefly, cleared volume was calculated from the concentration difference of the tracer in the basal compartments (Δ[C]B) after 30 min and apical compartments at 0 h ([C]A), the volume of the basal compartment (VB; 1.5 mL) and the surface area available for permeability (A; 1.1 cm^2).
Analytical measurements were performed on a Merck-Hitachi LaChrom HPLC system equipped with an ultraviolet (UV) and fluorescence detector (Merck, Darmstadt, Germany). All reagents used were of analytical reagent grade. […] In both cases 10μL sample was injected into the chromatographic system.
The chromatographic column was maintained at 40 °C and the 5 μL sample was injected onto the column.
The column temperature was maintained at 40 °C and a 20 μL sample was injected onto the chromatographic system. […] UV detection was set at 228 nm.

CC(C)C[C@H](NC(=O)[C@H](C)NC(=O)[C@H](CCCCN)NC(=O)[C@H](CC(C)C)NC(=O)[C@H](C)NC(=O)[C@H](CC(C)C)NC(=O)[C@H](CCCCN)NC(=O)[C@H](CC(C)C)NC(=O)[C@H](C)NC(=O)[C@H](CC(C)C)NC(=O)[C@@H](N)CCCCN)C(=O)N[C@@H](CCCCN)C(=O)N[C@@H](C)C(=O)N[C@@H](C)C(=O)N[C@@H](CC(C)C)C(=O)N[C@@H](CCCCN)C(=O)N[C@@H](CC(C)C)C(=O)N[C@@H](C)C(N)=O [PN159]
Ultrastructure of epithelial junctions ([1]; 1-day recovery after PN159 10 μM): became similar to control cells
Tight junctions by electron microscopy ([1]; PN159 10 μM): no junctions were observed
Co-localization with claudin-4 [2]: visible in the cytoplasm and also in the cell membrane at the level of intercellular junctions
Junctional and cell morphology (claudin-1, ZO-1, β-catenin, F-actin) ([3]; PN159 1 μM): slight effect on cell morphology
Junctional and cell morphology (claudin-1, ZO-1, β-catenin, F-actin) ([3]; PN159 10 μM): drastic change in actin cytoskeleton and epithelial junctional morphology
Permeability enhancement for fluorescein and albumin [4]: most effective permeability enhancer activity
